From US10174013B2, “Benzimidazole derivatives as kinase inhibitors” (SELVITA S.A., priority 2012, dated 2019)
Structures can show the parent of a compound that is named as a salt. Where two headings read alike, the source gives them in different places.

How the values were obtained:
Pim-1 = Pim-1 (Homo sapiens (Human), UniProt P11309); assay: ADP-Glo Kinase Assay, Pim-1; type: biochemical; conditions: 1 μM compound; for inhibition at 1 µM: read-out: Pim-1 % INH (1 μM)
Procedure, shortened: (§1)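 Compounds were diluted in assay buffer to 1000 nM and incubated with kinase, substrate and ATP at apparent Km. Remaining ATP was depleted, ADP converted to ATP and detected by luciferase; percent inhibition came from normalized luminescence.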

Pim-2 = Pim-2 (Homo sapiens (Human), UniProt Q9P1W9); assay: ADP-Glo Kinase Assay, Pim-2; type: biochemical; conditions: 1 μM compound; for inhibition at 1 µM: read-out: Pim-2 % INH (1 μM)
Procedure, shortened: as §1

Pim-3 = Pim-3 (Homo sapiens (Human), UniProt Q86V86); assay: ADP-Glo Kinase Assay, Pim-3; type: biochemical; conditions: 1 μM compound; for inhibition at 1 µM: read-out: Pim-3 % INH (1 μM)
Procedure, shortened: as §1

FLT3wt = FLT3wt (Homo sapiens (Human), UniProt P36888); assay: ADP-Glo Kinase Assay, Flt3 wt; type: biochemical; conditions: 1 μM compound; for inhibition at 1 µM: read-out: Flt3wt % INH (1 μM)
Procedure, shortened: as §1

CDK2/E = CDK2/E (Homo sapiens (Human), UniProt P24941); assay: ADP-Glo Kinase Assay, CDK2/E; type: biochemical; conditions: 1 μM compound; for inhibition at 1 µM: read-out: CDK2/E % INH (1 μM)
Procedure, shortened: as §1

DYRK1 = DYRK1 (Homo sapiens (Human), UniProt Q13627); assay: ADP-Glo Kinase Assay, DYRK1; type: biochemical; conditions: 1 μM compound; for inhibition at 1 µM: read-out: DYRK1A % INH (1 μM)
Procedure, shortened: as §1

MV4-11 cells = assay: Growth inhibition, MTS assay, MV4-11; type: cell-based, Human; conditions: MTS cell viability, read-out: MV4-11 ED50
HEL92 cells = assay: Growth inhibition, MTS assay, HEL92; type: cell-based, Human; conditions: MTS cell viability, read-out: HEL92 ED50
HepG2 cells = assay: Growth inhibition, MTS assay, HepG2; type: cell-based, Human; conditions: MTS cell viability, read-out: HepG2 ED50
Jeko-1 cells = assay: Growth inhibition, MTS assay, Jeko-1; type: cell-based, Human; conditions: 72 hours, MTS cell viability, read-out: Jeko-1 ED50
SW-480 cells = assay: Growth inhibition, MTS assay, SW-480; type: cell-based, Human; conditions: 72 hours, MTS cell viability, read-out: SW-480 ED50
hERG potassium channel = hERG potassium channel (Homo sapiens (Human), UniProt Q12809); assay: hERG automated patch clamp assay (QPatch HT)
Experimental: The hERG (human ether-A-go-go-related gene) channel corresponds to an important anti-target for potential new drugs since its inhibition may lead to sudden death. In order to establish whether the compounds of the present invention act on hERG, the following experiment was carried out.
The in vitro effects of the compounds indicated in Table 5 on the hERG potassium channel current (a surrogate for Iκr, the rapidly activating, delayed rectifier cardiac potassium current) expressed in mammalian cells were evaluated at room temperature using the QPatch HT® (Sophion Bioscience A/S, Denmark), an automatic parallel patch clamp system. Each compound indicated in Table 5 was evaluated at 0.1, 1, 3, 10 and 30 μM with each concentration tested in a minimum of two cells (n≥2). The duration of exposure to each compound concentration was 3 minutes.

CYP3A4 = CYP3A4 (Homo sapiens (Human), UniProt P08684); assay: Cytochrome P450 inhibition, fluorescence, CYP3A4; type: in vitro ADME; conditions: recombinant CYP3A4, fluorescence detection; read-out: CYP inhibition (CYP 3A4 screening, IC50 class)
Experimental: The assays for cytochrome P450 inhibition facilitate the identification of drug candidates with lower potential for drug-drug interactions (weak enzymes inhibitors). In vitro experiments were conducted to determine whether a drug inhibits a specific CYP enzyme. The experiments comprised the incubation of the drug with probe substrates for the CYP enzymes, wherein the following recombinant cytochrome P450 isoforms were employed: CYP1A2, CYP2C8, CYP2C9, CYP2C19, CYP2D6 and CYP3A4, together with various probe substrates enabling fluorescence detection. The protocol uses a single substrate concentration near the apparent Km and multiple compound concentrations.
The assay was performed in 96-well microtiter plates. The row designations were A through H and the column designations were 1 through 12. […] Each compound (see Table 6 for tested compounds) was added to the wells in column 1 and serially diluted to the wells in column 8. Wells 9 and 10 were control wells which contained no test compound (therefore no inhibition-full signal is detected.) The wells in columns 11 and 12 were blanks, where STOP solution was added prior to the addition of the enzyme/substrate mix to the NADPH regenerating system (the only signal present in these wells is background noise.) The assay was conducted in a final volume of 0.2 ml per well.
The stock solutions of the tested compounds were prepared in DMSO at 10 mM concentration. […] After mixing the compounds with solution containing NADPH-cofactors, the mixed plate was preincubated in a 37° C. incubator for at least 10 minutes; next, the fluorescence of compounds using recommended excitation/emission filters was measured in order to eliminate false results originating from autofluorescence of the compounds. In the following step, the enzyme/substrate mix was added to columns 1 through 10 and the plates were incubated at 37° C. for specific times depending on the CYP tested (incubation times ranged from 30 to 45 minutes). After adding STOP SOLUTION to all wells and respective enzyme/substrate mix to the wells in columns 11 and 12, the plate was scanned with a fluorescent plate scanner. The excitation/emission filters used for the specific assays are described in the GenTest Screening Kit instruction manual.

MOLM13 cells = assay: Growth inhibition, MTS assay, MOLM13; type: cell-based, Human; conditions: 72 hours, MTS cell viability, read-out: MOLM 13 ED50
From the text: (§2) The following cell lines, were obtained and used in tests as outlined below: • Human myelomonocytic, biphenotypic leukemia MV4-11 cells (harboring a Flt3-ITD mutation); • Human Acute Myeloid Leukemia MOLM16 cells; • Human Acute Myeloid Leukemia MOLM13 cells (harboring a Flt3-ITD mutation); • Human Myeloid Leukemia KG-1 cells; • Human erythroleukemia HEL92 cells; • Human mantle cell lymphoma Jeko-1 cells; • Human hepatocellular carcinoma HepG2 cells; and • Human colon adenocarcinoma SW-480 cells.
(§3) The assays were carried out according to the following protocol, which is described as an example for the MV4-11 cells:
(§4) Ten thousand MV4-11 cells were inoculated into each well of a 96-well microplate (manufactured by Corning Corp.) using Iscove's MDM medium (culture medium) containing 10% fetal calf serum (FCS). The same day, a dimethyl sulfoxide (DMSO) solution of each test compound prepared in a concentration of 10 mmol/L was further diluted with DMSO to the desired concentrations (0.1, 0.5, 1, 2.5, 5 and 10 micromol/L), and the diluted solution was added to each well. The individual wells were further cultured in 5% carbon dioxide at 37° C. for 72 hours. […] Briefly, 10 μl MTS (3-(4,5-Dimethyl-2-thiazolyl)-5-(carboxymethoxyphenyl)-2-(4-sulfophenyl)-2H-tetrazolium was added to each well, and culturing was performed in 5% carbon dioxide at 37° C. for 2 hours. After this incubation and using a microplate spectrophotometer (Synergy 2 multi-mode microplate reader (BioTek)), the absorbance of each well was measured at 490 nm. The value for cells not incubated with a test compound was designated as 100%. By comparing these values with the absorbance difference obtained at the well in which each test compound was added, the cell viability (% viability) after treatment with the test compound was calculated.

MOLM16 cells = assay: Growth inhibition, MTS assay, MOLM16; type: cell-based, Human; conditions: Homo sapiens, MOLM16, 72 h, MTS cell viability, read-out: MOLM 16 ED50
From the text: as §2, §3, §4

Chain of hERG potassium channel (Q12809 whole entry): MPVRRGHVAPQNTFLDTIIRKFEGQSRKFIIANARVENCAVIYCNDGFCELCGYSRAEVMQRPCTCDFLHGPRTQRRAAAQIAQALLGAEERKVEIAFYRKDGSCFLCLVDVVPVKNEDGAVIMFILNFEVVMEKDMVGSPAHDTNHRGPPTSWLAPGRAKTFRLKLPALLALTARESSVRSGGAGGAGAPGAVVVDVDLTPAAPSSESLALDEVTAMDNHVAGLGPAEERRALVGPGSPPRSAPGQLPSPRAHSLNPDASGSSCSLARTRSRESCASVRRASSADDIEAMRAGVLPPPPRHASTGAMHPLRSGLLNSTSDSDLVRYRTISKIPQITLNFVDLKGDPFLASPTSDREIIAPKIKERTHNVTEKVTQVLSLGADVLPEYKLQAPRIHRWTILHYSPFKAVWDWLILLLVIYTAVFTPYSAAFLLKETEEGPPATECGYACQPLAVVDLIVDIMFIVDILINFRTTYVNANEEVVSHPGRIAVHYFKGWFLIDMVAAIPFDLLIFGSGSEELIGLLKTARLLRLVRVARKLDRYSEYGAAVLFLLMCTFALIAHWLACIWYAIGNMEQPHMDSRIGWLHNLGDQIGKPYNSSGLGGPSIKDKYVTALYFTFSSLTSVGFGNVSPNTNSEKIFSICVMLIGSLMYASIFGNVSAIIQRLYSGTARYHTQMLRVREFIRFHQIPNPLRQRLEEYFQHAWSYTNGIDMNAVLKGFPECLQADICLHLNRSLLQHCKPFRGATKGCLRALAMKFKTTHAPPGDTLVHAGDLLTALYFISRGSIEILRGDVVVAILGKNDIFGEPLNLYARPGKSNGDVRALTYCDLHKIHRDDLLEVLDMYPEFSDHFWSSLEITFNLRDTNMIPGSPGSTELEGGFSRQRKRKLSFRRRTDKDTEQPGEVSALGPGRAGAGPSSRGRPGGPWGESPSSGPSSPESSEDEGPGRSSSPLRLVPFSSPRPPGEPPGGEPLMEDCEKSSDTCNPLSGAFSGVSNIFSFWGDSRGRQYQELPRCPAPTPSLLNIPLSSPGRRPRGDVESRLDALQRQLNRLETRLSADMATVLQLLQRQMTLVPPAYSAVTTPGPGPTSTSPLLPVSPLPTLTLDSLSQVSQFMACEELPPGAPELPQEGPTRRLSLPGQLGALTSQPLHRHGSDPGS
Chain of FLT3wt (P36888 27-993): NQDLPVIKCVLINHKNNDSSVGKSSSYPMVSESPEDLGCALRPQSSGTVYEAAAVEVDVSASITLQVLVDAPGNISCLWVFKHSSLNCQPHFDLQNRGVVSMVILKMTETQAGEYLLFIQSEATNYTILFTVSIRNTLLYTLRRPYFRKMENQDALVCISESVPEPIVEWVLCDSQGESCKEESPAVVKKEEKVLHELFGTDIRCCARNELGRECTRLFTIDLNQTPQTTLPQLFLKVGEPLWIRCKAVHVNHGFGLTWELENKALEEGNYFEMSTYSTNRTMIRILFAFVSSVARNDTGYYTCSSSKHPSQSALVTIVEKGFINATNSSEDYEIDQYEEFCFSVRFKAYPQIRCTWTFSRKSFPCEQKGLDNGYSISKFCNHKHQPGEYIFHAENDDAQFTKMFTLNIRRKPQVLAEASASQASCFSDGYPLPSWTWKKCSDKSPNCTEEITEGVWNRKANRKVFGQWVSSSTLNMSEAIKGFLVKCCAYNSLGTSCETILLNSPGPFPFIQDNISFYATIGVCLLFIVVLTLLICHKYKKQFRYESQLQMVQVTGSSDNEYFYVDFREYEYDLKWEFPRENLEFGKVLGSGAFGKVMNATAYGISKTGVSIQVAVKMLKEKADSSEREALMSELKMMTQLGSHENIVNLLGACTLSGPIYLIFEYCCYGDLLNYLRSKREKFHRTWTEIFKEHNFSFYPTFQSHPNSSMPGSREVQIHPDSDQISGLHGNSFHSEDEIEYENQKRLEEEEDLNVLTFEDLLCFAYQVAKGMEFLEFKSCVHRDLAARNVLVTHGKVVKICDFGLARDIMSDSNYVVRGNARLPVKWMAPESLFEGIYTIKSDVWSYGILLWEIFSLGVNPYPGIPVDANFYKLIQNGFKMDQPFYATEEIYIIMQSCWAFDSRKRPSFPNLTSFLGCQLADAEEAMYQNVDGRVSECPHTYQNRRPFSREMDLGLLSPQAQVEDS
Chain of Pim-2 (Q9P1W9 whole entry): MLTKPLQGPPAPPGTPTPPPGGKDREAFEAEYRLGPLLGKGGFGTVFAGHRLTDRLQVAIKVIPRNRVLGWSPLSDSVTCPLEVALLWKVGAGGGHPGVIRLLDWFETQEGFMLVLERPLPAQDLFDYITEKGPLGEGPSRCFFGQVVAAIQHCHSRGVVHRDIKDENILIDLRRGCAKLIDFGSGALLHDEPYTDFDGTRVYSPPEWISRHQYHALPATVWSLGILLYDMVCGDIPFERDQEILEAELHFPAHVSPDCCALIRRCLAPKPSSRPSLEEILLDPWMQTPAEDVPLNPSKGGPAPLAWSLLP
Chain of Pim-1 (P11309 whole entry): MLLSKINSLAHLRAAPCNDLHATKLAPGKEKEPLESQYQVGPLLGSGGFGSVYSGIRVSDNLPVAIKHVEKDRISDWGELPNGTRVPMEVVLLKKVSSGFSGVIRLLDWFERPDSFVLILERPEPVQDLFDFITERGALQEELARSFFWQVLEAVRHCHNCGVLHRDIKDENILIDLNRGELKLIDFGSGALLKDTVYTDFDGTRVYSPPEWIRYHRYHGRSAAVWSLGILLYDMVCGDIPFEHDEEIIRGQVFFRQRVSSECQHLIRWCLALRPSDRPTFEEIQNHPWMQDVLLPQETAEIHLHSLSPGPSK
Chain of CYP3A4 (P08684 whole entry, canonical isoform): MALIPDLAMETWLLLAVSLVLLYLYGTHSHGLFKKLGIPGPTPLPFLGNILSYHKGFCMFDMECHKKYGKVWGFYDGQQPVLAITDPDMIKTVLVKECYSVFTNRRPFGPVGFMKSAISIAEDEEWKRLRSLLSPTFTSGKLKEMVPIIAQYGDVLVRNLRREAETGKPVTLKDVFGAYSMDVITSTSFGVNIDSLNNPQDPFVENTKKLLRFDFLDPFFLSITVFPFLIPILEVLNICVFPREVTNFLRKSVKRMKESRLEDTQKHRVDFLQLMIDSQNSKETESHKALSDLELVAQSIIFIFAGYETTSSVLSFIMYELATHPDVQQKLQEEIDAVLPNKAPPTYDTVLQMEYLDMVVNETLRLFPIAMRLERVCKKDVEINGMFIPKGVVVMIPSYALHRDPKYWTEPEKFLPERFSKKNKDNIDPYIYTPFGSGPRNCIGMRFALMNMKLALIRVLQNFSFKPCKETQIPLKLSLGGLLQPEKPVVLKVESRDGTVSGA

Compound	Pim-1 % INH (1 μM) (Pim-1) [%]	Pim-2 % INH (1 μM) (Pim-2) [%]	Pim-3 % INH (1 μM) (Pim-3) [%]	Flt3wt % INH (1 μM) (FLT3wt) [%]	CDK2/E % INH (1 μM) (CDK2/E) [%]	DYRK1A % INH (1 μM) (DYRK1) [%]	IC50 (MV4-11 cells; 72 hours) [nM]	IC50 (HEL92 cells; 72 hours) [nM]	IC50 (HepG2 cells; 72 hours) [nM]	IC50 (CYP3A4) [nM]	inhibition at 1 µM (Pim-1) [%]	inhibition at 1 µM (Pim-2) [%]	inhibition at 1 µM (Pim-3) [%]	inhibition at 1 µM (FLT3wt) [%]	inhibition at 1 µM (CDK2/E) [%]	inhibition at 1 µM (DYRK1) [%]	IC50 (MV4-11 cells; Homo sapiens, MV4-11, 72 h) [nM]	IC50 (HEL92 cells; Homo sapiens, 72 h) [nM]	IC50 (HepG2 cells; Homo sapiens, HepG2, 72 h) [nM]	other results
CCn1c(N[C@H]2CCCNC2)nc2c([N+](=O)[O-])c(Br)c(Br)cc21 [Example 1AA]	>95	53	>95	11	<5	40	1300	4600	2100	1100 to 3300										IC50 (Jeko-1 cells): 1800 nM; IC50 (SW-480 cells): 5500 nM; IC50 (hERG potassium channel): 2270 nM
CCn1c(NC2CCNC2)nc2c([N+](=O)[O-])c(Br)c(Br)cc21 (stereo not drawn) [Example 1AF]										> 10000	> 95	23	71	< 5	< 5	47	1200	8500	1800	IC50 (Jeko-1 cells; Homo sapiens, JeKo-1): 2300 nM; IC50 (SW-480 cells; Homo sapiens, SW480): 5200 nM
CC(C)n1c(N2CC[C@@H](N)C2)nc2c([N+](=O)[O-])c(Br)c(Br)cc21 [Example 1AY]	>95	89	>95	60		87	500	1900	1500											IC50 (MOLM13 cells): 900 nM
COCCn1c(N2CCNCC2)nc2c([N+](=O)[O-])c(Br)c(Br)cc21 [Example 1BB]	>95	12	65	33	29	61	700	5400	2000											IC50 (MOLM13 cells): 3000 nM
CC(C)n1c(NC2CCC(N)CC2)nc2c([N+](=O)[O-])c(Br)c(Br)cc21 (stereo not drawn) [Example 1BC]				<5	<5					3300 to 10000	79	16	46			14	3200	7900		IC50 (Jeko-1 cells; Homo sapiens, JeKo-1): 3000 nM
CC(C)n1c(N[C@H]2CCNC2)nc2c([N+](=O)[O-])c(Br)c(Br)cc21 [Example 1BD]	>95	65	88	28	<5	53	700	5500	3300	> 10000										IC50 (Jeko-1 cells): 1600 nM; IC50 (MOLM13 cells): 2100 nM; IC50 (hERG potassium channel): 4340 nM
CC(C)n1c(NC2CCNC2)nc2c(C#N)c(Br)c(Br)cc21 (stereo not drawn) [Example 1BK]	>95	63	92	20	<5	48	800		5200	> 10000										IC50 (MOLM16 cells): 60 nM
CC(C)n1c(N2CCNCC2)nc2c(C#N)c(Br)c(Br)cc21 [Example 1BL]											> 95	33	81	54	7	75	400	2400	1400	IC50 (MOLM13 cells; Homo sapiens, MOLM-13): 1000 nM
CCn1c(NC2CCCNCC2)nc2c([N+](=O)[O-])c(Br)c(Br)cc21 (stereo not drawn) [Example 1Q]										3300 to 10000	86	22	> 95	< 5	6	11	6900	8200	1100	IC50 (Jeko-1 cells; Homo sapiens, JeKo-1): 5400 nM; IC50 (SW-480 cells; Homo sapiens, SW480): 5300 nM
NCCCNc1nc2c([N+](=O)[O-])c(Br)c(Br)cc2n1C1CCCC1 [Example 2H, N-(3-aminopropyl)-5,6-dibromo-1-cyclopentyl-4-nitro-1H-1,3-benzodiazol-2-amine hydrochloride]										3300 to 10000	> 95	56	> 95	< 5	< 5	62	2000	6800	1500	IC50 (SW-480 cells; Homo sapiens, SW480): 1400 nM
COC(CN)CNc1nc2c([N+](=O)[O-])c(Br)c(Br)cc2n1C(C)C (stereo not drawn) [Example 22AB, N-(3-amino-2-methoxypropyl)-5,6-dibromo-4-nitro-1-(propan-2-yl)-1H-1,3-benzodiazol-2-amine]										3300 to 10000	> 95	31	76	< 5	< 5	17	3200		5100	IC50 (hERG potassium channel): 2020 nM
